Experimental data as given in patent publication US6750256B1, “Use of aromatic aldehydes as insecticides” (Proguard, Inc., priority 1994, dated 2004).

Columns and labels:
[1] = test system: melon aphid (Aphis gossypii Glover); assay: Melon aphid plant foliar bioassay on flowering chrysanthemums; format: in vivo; conditions: each concentration (1,000, 3,000, 10,000 ppm); after 36 hours; pre-count mean of about 60
Procedure: Treatment of melon aphid (Aphis gossypii Glover) is conducted as follows. Plants were grown in […] pots in planting soil in greenhouse. Chrysantemums (c. morifolum) were used for melon aphid plant foliar bioassays.
Flowering plants were infested and pre-count population size for each plant were taken and number of mean of aphids nymphs per leaf calculated. The plants were sprayed to runoff (about 5 ml) with an aqueous formulation containing 1,000 ppm, 3,000 ppm, and 10,000 ppm concentration of cinnamic aldehyde, and a negative control containing only H2O. After 36 hours, the number of insects on the leaves sprayed with a given test formulation was determined and compared with that of insects on leaves sprayed with negative control only. Mean aphid nymphs per leaf were determined to be less than 10 for each cinnamic aldehyde concentration compared to a pre-count mean of about 60.

[2] = test system: two-spotted spider mite, Tetranychus urticae; assay: Spider mite treated petri dish contact bioassay; format: in vivo; conditions: Tetranychus urticae, 24 hours contact, read-out: Percent Mortality (24 hours)
Procedure: Activity of cinnamic aldehyde and/or coniferyl aldehyde against two-spotted spider mite, Tetranychus urticae is determined as follows. In a double blind experiment, intersurfaces of petri dishes (60 mm diameter) were treated with 100 μl of a test formulation and allowed to air dry and used within the hour. Twenty adult spider mites were put in each dish and the percent of mortality of the spider mites after 24 hours in contact with the treated dishes Was determined.

[3] = test system: adult carpenter ants (Camponotus pennsylvanicus); assay: Carpenter ant spray test; format: in vivo
Procedure: The effect of cinnamic aldehyde on adult carpenter ants (Camponotus pennsylvanicus) was evaluated as follows. Twenty adult ants were placed in a 20 liter stainless steel pail with lid. The test formulations were prepared and used within one hour and were shaken immediately before spraying the insects. 8 ml of test solution was sprayed with a fine spray (Gilmour hand sprayer). […] Cinnamic aldehyde (2%, 20,000 ppm) in 2% Tween 80 and 6% NaHCO3 in water gave 100% mortality at all time points. Vehicle in 2% Tween 80 and 6% NaHCO3. Raid (active ingredients: permethrin, pyrethrins and PBO) was used as a positive control and gave 90% mortality at 0.5 hr with 100% mortality at all other time points.

[4] = test system: larvae of Culex quinquefasciatus mosquito; assay: Mosquito larvicidal bioassay; format: in vivo
Procedure: Larvicidal activity of test formulations at varying concentrations was tested in a double blind bioassay on larvae of Culex quinquefasciatus mosquito. Twenty-five late 3rd-instar larvae of Culex quinquefasciatus were placed in 100×80 mm Purex #3250 glass containers. 250 ml distilled H2O was pipetted into the containers. One ml of test formulation containing 10 to 25,000 ppm cinnamic aldehyde in vehicle (2% by volume Tween 80 and 6% sodium bicarbonate in distilled H2O) was pipetted into each container. A control blank using 1 ml distilled H2O instead of a test formulation was also prepared.
All treated and untreated glass containers were placed in temperature controlled room at 29° C. Each container was evaluated for larvae mortality at 24 hour intervals. The number of dead larvae were reported. See Table 5 for results of the bioassay. Concentrations above 5,000 ppm cinnamic aldehyde gave 90% mortality at 24 and 48 hours.

[5] = test system: hard ticks (Ixodea pacificus and Dermacentor albipietus); assay: Tick treated filter paper test, hard ticks; format: in vivo
Procedure: In a double blind experiment, filter papers (90 mm) (Whatman) were treated to uniform saturation with 1 ml of test formula and placed in 90 mm petri dishes. Ten arachnids were placed in each petri dish and the dish closed. Observations of mortality were made at 30 minutes, 1 hour, 3 hours, 6 hours, 12 hours and 24 hours. The cinnamic aldehyde concentrations varied from 10-50,000 ppm in a vehicle of 2% Tween 80, 6% NaHCO3. The effect of vehicle alone or H2O (HPLC) was also tested. In separate experiments, the effects of the components of the vehicle were evaluated in comparison to water.

[6] = test system: melon aphids; assay: Melon aphid whole plant spray with cinnamaldehyde and saponin; format: in vivo, Aphis gossypii Glover; conditions: whole plant sprayed to drip
Procedure: Whole nonflowering potted chrysanthemum plants were used to assay melon aphids. Two plants were treated for each treatment and two leaves, one from the top of the plant and one from the bottom of the plant, were sampled to determine the number of living and dead melon aphids. Three treatments were applied: 1.0% CNMA plus 0.5% saponin, 0.5% CNMA plus 0.25% saponin, and 0.5% saponin only. The whole plants were sprayed to “drip” on both the top and bottom sides of leaves. Results are presented as the proportion of aphids found dead. Results were as follows: control plant (0.5% saponin only) 14.8% ±4.5; 0.5% CNMA 48.3±16.1; 1.0% CNMA 72.0±11.2.

[7] = 1 ml of 100 ppm formulation in 250 ml H2O
[8] = 1 ml of 2,500 ppm formulation in 250 ml H2O
[9] = 1 ml of 5,000 ppm formulation in 250 ml H2O
[10] = 1 ml of 12,500 ppm formulation in 250 ml H2O
[11] = 1 ml of 25,000 ppm formulation in 250 ml H2O

SMILES: O=C/C=C/c1ccccc1 [CNMA, cinnamic aldehyde]
- Mean aphid nymphs per leaf [1]: less than 10
- mortality at 10 ppm ([2]; 10 ppm in 2% Tween 80, 6% NaHCO3): 51.7%
- mortality at 100 ppm ([2]; 100 ppm in 2% Tween 80, 6% NaHCO3): 56%
- mortality at 2500 ppm ([2]; 2,500 ppm in 2% Tween 80, 6% NaHCO3): 78%
- mortality at 5000 ppm ([2]; 5,000 ppm in 2% Tween 80, 6% NaHCO3): 66.4%
- mortality at 12500 ppm ([2]; 12,500 ppm in 2% Tween 80, 6% NaHCO3): 98.6%
- mortality at 25000 ppm ([2]; 25,000 ppm in 2% Tween 80, 6% NaHCO3): 99.2%
- mortality at 20000 ppm [3]: 100%
- Percent Mortality (time) 24 hours ([4]; 1 ml of 10 ppm formulation (2% Tween 80, 6% sodium bicarbonate) in 250 ml H2O): 0%
- Percent Mortality (time) 48 hours ([4]; 1 ml of 10 ppm formulation in 250 ml H2O): 0%
- Percent Mortality (time) 24 hours [4, 7]: 2%
- Percent Mortality (time) 48 hours [4, 7]: 2%
- Percent Mortality (time) 24 hours [4, 8]: 4%
- Percent Mortality (time) 48 hours [4, 8]: 4%
- Percent Mortality (time) 24 hours [4, 9]: 8%
- Percent Mortality (time) 48 hours [4, 9]: 20%
- Percent Mortality (time) 24 hours [4, 10]: 90%
- Percent Mortality (time) 48 hours [4, 10]: 90%
- Percent Mortality (time) 24 hours [4, 11]: 100%
- Percent Mortality (time) 48 hours [4, 11]: 100%
- mortality ([4]; concentrations above 5,000 ppm, at 24 and 48 hours): 90%
- mortality ([5]; 2500 ppm in vehicle (2% Tween 80, 6% NaHCO3), in 24 hours, preliminary experiments): 100%
- effect on mortality ([5]; concentrations below 2500 in vehicle): no effect on mortality
- proportion of aphids found dead ([6]; 0.5% CNMA plus […] saponin): 48.3±16.1%
- proportion of aphids found dead ([6]; 1.0% CNMA plus 0.5% saponin): 72.0±11.2%
